Measurements as given in US12594267B2, “Capsid inhibitors for the treatment of HIV” (Gilead Sciences, Inc., priority 2018, dated 2026).
Read-outs that look alike come from different tables or passages of the source.

Tests used:
[1] = PK after oral administration of spray-dried dispersion (SDD) tablets in dogs; type: in vivo; conditions: dog, plasma, beagle dogs, oral SDD tablet of the sodium salt (Table T composition, Opadry II White film coat), 300 mg fixed dose, mean ± SD, n=6
Method: A tablet, prepared from a spray-dried dispersion of a sodium salt of the compound of Formula (Ia), was prepared in a composition shown in Table T below (with an outer film coating made of Opadry® II White 85F18422, wherein the outer film coating provides a 3% weight gain based on the uncoated tablet) and was administered orally at 300 mg fixed dose to 6 beagle dogs (Table U) and the pharmacokinetic (PK) profile was determined. […] Plasma concentrations of the compound of Formula (Ia) were maintained above the target trough concentration of 20 nM for at least 14 days (2 weeks).

[2] = IV AUC used as reference for % F of capsules; parameters: species or system beagle dogs; conditions: beagle, dog, in vivo; IV at 1 mg/kg; reference for % F in Table 9; read-out: average IV AUC0-72h
[3] = test system: WT HXB2D; experiment: Cytopathic antiviral assay in MT-2 cells, wild type HXB2D; type: cell-based, HIV-1; conditions: mean ± s.d. of three experiments in triplicate
Method: The antiviral activity of the compound of Formula (a) was tested against a panel of known HIV-1 mutants resistant to HIV PIs (ATV and DRV), NRTIs (TFV and FTC), NNRTIs (RPV and EFV) or INSTIs (RAL, EVG and DTG) using a cytopathic antiviral assay in MT-2 cells. The compound of Formula (Ia) was fully active against all tested mutants resistant to PIs (Table 11), NRTIs (Table 12), NNRTIs (Table 13) or INSTIs (Table 14).

[4] = Plasma PK after single oral administration in solution, dog; type: in vivo, Beagle Dog
Method: An oral formulation containing a compound of Formula (Ia) in […], 20% propylene glycol, 45 PEG 300, and 30% 0.01 N HCl was prepared. The formulation was orally administered to male rat, dog, cynomolgus monkey, and rhesus monkey according to the doses shown in Table 8 below.

[5] = PK after oral administration in liquid-filled capsules in dogs; type: in vivo, beagle dogs; conditions: for bioavailability: oral, calculated based on AUC0-72h vs average IV AUC0-72h
Method: A single dose of the compound of Formula (Ia), formulated as liquid-filled capsules (LFC) containing either 100% glycerol monocaprylocaprate or 20% caprylocaproyl polyoxyl-8 glycerides and 80% glycerol monocaprylocaprate was administered orally at 7.5 mg fixed dose to 6 male beagle dogs (Table 9). At 100 mg/mL of the compound of Formula (Ia), the AUCinf increased with increasing glycerol monocaprylocaprate content. For the formulation with 100% glycerol monocaprylocaprate, the AUCinf at 50 mg/mL was higher than that at 100 mg/mL.
A single dose of the compound of Formula (Ia), formulated as liquid-filled capsules (LFC) containing 100% glycerol monocaprylocaprate, was administered orally at 7.5 mg fixed dose to 6 beagle dogs (Table S) and the pharmacokinetic (PK) profile was determined. […] Plasma concentrations of the compound of Formula (Ia) were maintained above the target trough concentration of 20 nM for at least 72 hours (3 days).

[6] = male, beagle, plasma, dog, single oral 4.0 mg/kg, solution in 5% ethanol/20% propylene glycol/45% PEG 300/30% 0.01 N HCl, mean ± SD, n=3
[7] = dog, plasma, fasted, pentagastrin-pretreated male beagle dogs, oral LFC 7.5 mg fixed dose, 20% caprylocaproyl polyoxyl-8 glycerides and 80% glycerol monocaprylocaprate, 100 mg/mL, mean ± SD, n=6
[8] = male, beagle, dog, plasma, po, 7.5 mg, fasted, pentagastrin-pretreated male beagle dogs, oral LFC 7.5 mg fixed dose, 100% glycerol monocaprylocaprate, 50 mg/mL, mean ± SD, n=6
[9] = male, beagle, dog, plasma, po, 7.5 mg, fasted, pentagastrin-pretreated male beagle dogs, oral LFC 7.5 mg fixed dose, 100% glycerol monocaprylocaprate, 100 mg/mL, mean ± SD, n=6

CC(C)(C#Cc1ccc(-c2ccc(Cl)c3c(NS(C)(=O)=O)nn(CC(F)(F)F)c23)c([C@H](Cc2cc(F)cc(F)c2)NC(=O)Cn2nc(C(F)(F)F)c3c2C(F)(F)[C@@H]2C[C@H]32)n1)S(C)(=O)=O [Formula (Ia), N—((S)-1-(3-(4-chloro-3-(methylsulfonamido)-1-(2,2,2-trifluoroethyl)-1H-indazol-7-yl)-6-(3-methyl-3-(methylsulfonyl)but-1-yn-1-yl)pyridin-2-yl)-2-(3,5-difluorophenyl)ethyl)-2-((3bS,4aR)-5,5-difluoro-3-(trifluoromethyl)-3b,4,4a,5-tetrahydro-1H-cyclopropa[3,4]cyclopenta[1,2-c]pyrazol-1-yl)acetamide]
Cmax [1]: 718 ± 409 nM | Tmax [1]: 5.3 ± 3.3 h | AUC(0-t) ([1]; read-out: AUC0-72h): 15.8 ± 10 µM·h | concentration at 72 h ([1]; read-out: C72h): 61.4 ± 30 nM | AUC(0-t) [2]: 13.5 µM·h | EC50 ([3]; Human immunodeficiency virus 1, MT2, read-out: WT HXB2D EC50, MT-2 cells, INSTI-resistance panel (Table 14)): 0.13 ± 0.03 nM | EC50 ([3]; Human immunodeficiency virus 1, MT2, read-out: WT HXB2D EC50, MT-2 cells, NNRTI-resistance panel (Table 13)): 0.18 ± 0.02 nM | EC50 ([3]; MT-2 cells, PI-resistance panel (Table 11), read-out: WT HXB2D EC50): 0.24 ± 0.14 nM | F % (bioavailability), in words ([4]; dogs, oral solution): moderate | bioavailability ([4]; male, beagle, plasma, dog, single oral 4.0 mg/kg, same solution, calculated based on AUC0-72h, mean ± SD, n=3, read-out: F (oral bioavailability)): 22.1 ± 8.4% | AUC(0-inf) [4, 6]: 16500 ± 10400 µM·h | Cmax [4, 6]: 471000 ± 203000 nM | Tmax [4, 6]: 10.7 ± 11.5 h | AUC(0-t) ([4]; male, beagle, plasma, dog, single oral 4.0 mg/kg, solution in 5% ethanol/20% propylene glycol/45% PEG 300/30% 0.01 N HCl, mean ± SD, n=3, read-out: AUC0-72h): 11400 ± 4320 µM·h | Time plasma concentrations maintained above the target trough concentration of 20 nM ([5]; beagle dogs, oral liquid-filled capsules, 100% glycerol monocaprylocaprate, 7.5 mg fixed dose): at least 72 hours | Tmax ([5]; beagle, dog, plasma, po, 7.5 mg, beagle dogs, oral liquid-filled capsules, 100% glycerol monocaprylocaprate, 7.5 mg fixed dose, 50 mg/mL (Table S), mean ± SD, n=6): 11 ± 10.1 h | AUC(0-t) ([5]; beagle, dog, plasma, po, 7.5 mg, beagle dogs, oral liquid-filled capsules, 100% glycerol monocaprylocaprate, 7.5 mg fixed dose, 50 mg/mL (Table S), mean ± SD, n=6, read-out: AUC0-72h): 5.07 ± 4.65 µM·h | AUC(0-t) ([5]; beagle, dog, plasma, po, 7.5 mg, beagle dogs, oral liquid-filled capsules, 100% glycerol monocaprylocaprate, 7.5 mg fixed dose, 50 mg/mL (Table S), mean ± SD, n=6, read-out: AUC0-14d): 108 ± 16 µM·h | concentration at 72 h ([5]; dog, plasma, beagle dogs, oral liquid-filled capsules, 100% glycerol monocaprylocaprate, 7.5 mg fixed dose, 50 mg/mL (Table S), mean ± SD, n=6, read-out: C72h): 20.1 ± 24.4 nM | AUC(0-inf) [5, 7]: 1.3 ± 0.634 µM·h | Cmax [5, 7]: 53.2 ± 16.7 nM | Tmax [5, 7]: 7.7 ± 8 h | AUC(0-t) ([5]; dog, plasma, fasted, pentagastrin-pretreated male beagle dogs, oral LFC 7.5 mg fixed dose, 20% caprylocaproyl polyoxyl-8 glycerides and 80% glycerol monocaprylocaprate, 100 mg/mL, mean ± SD, n=6, read-out: AUC0-72h): 1.18 ± 0.575 µM·h | bioavailability ([5]; male, beagle, dog, plasma, 7.5 mg, as above (20%/80% LFC, 100 mg/mL), mean ± SD, n=6): 11 ± 4% | bioavailability ([5]; male, beagle, dog, plasma, 7.5 mg, as above (100% glycerol monocaprylocaprate LFC, 50 mg/mL), mean ± SD, n=6): 22 ± 10% | bioavailability ([5]; male, beagle, dog, plasma, 7.5 mg, as above (100% glycerol monocaprylocaprate LFC, 100 mg/mL), mean ± SD, n=6): 16 ± 9% | AUC(0-inf) [5, 8]: 2.33 ± 1.35 µM·h | Cmax [5, 8]: 82.7 ± 32.1 nM | Tmax [5, 8]: 4 h | AUC(0-t) ([5]; male, beagle, dog, plasma, po, 7.5 mg, fasted, pentagastrin-pretreated male beagle dogs, oral LFC 7.5 mg fixed dose, 100% glycerol monocaprylocaprate, 50 mg/mL, mean ± SD, n=6, read-out: AUC0-72h): 2.18 ± 1.24 µM·h | AUC(0-inf) [5, 9]: 1.87 ± 1.19 µM·h | Cmax [5, 9]: 71.2 ± 25.8 nM | Tmax [5, 9]: 5 ± 1.1 h | AUC(0-t) ([5]; male, beagle, dog, plasma, po, 7.5 mg, fasted, pentagastrin-pretreated male beagle dogs, oral LFC 7.5 mg fixed dose, 100% glycerol monocaprylocaprate, 100 mg/mL, mean ± SD, n=6, read-out: AUC0-72h): 1.67 ± 1.04 µM·h
